# Results: patent US9597407B2, “Targeted antimicrobial moieties” (C3 Jian, Inc., priority 2009, dated 2017)
# “Also recorded” adds a separate entry of the source.
# How the values were obtained:
# [1] = test system: microorganisms; assay: Morphology, biofilm and growth disruption by peptides (Table 5); type: cell-based; set-up: key: A: Peptide aggregates; B: Less hyphal formation; Clumps; Diffuse clumps and small polyps; F: Diffuse growth; H: Thin; I: Growth inhibition; Microcolony formation; Rippled; Small polyps; Thick; W: Halo formation on top, microlonies on bottom
# Text: In certain embodiments peptides that induce alterations in phenotype or other biological activities can also be used as antimicrobial effector moieties.
# [2] = test system: microorganisms; assay: Peptide activities: binding, antimicrobial, growth or phenotype altering (Table 8)
# Text: In certain embodiments, peptides described herein can have multiple activities. Thus for example, a peptide can have both binding/targeting activity and antimicrobial activity. Such peptides can be used, e.g., in a chimeric construct, for any or all of these properties. Thus, for example, a peptide designated “B” in Table 8 can be used as a targeting peptide. If it is also designated G or M it can also be used for antimicrobial activity.
# [3] = test system: bacteria; assay: Binding of targeting peptides to microorganisms (Table 3); settings: peptide binding in aqueous buffers that varied depending on peptide solubility; preferably 1x PBS
Substance,"Organism, effect (morphology, biofilm and growth disruption) ([1]; S. pneumoniae)",Activities [2],Target(s) (microorganism bound by the targeting peptide) [3],"Organism, effect (morphology, biofilm and growth disruption) ([1]; MRSA)","Organism, effect (morphology, biofilm and growth disruption) ([1]; S. mutans)",other results
PF-625 (chain 1 SDSTNNARTRKKARDVTTKDIDK; chain 2 SDSTNNARTRKKARDVTTKDIDK; Peptide with targeting and/or antimicrobial activity),S. pneumoniae (H),G B,S. epidermidis; also recorded: M. luteus; also recorded: S. pneumoniae; also recorded: C. jeikeium,–,–,–
PF-626 (chain 1 KYDFDDFEPEEA; chain 2 KYDFDDFEPEEA; Peptide with targeting and/or antimicrobial activity),S. pneumoniae (H),G B,S. epidermidis and M. luteus and E. coli and C. albicans and MRSA and S. pneumoniae and E. faecalis and C. jeikeium,–,–,–
PF-627 (chain 1 INDLLSYFTLHEK; chain 2 INDLLSYFTLHEK; Peptide with targeting and/or antimicrobial activity),S. pneumoniae (I),G B,S. epidermidis and P. aeruginosa and MRSA and S. pneumoniae and E. faecalis and C. jeikeium,MRSA (R),–,"Organism, effect (morphology, biofilm and growth disruption) ([1]; C. albicans): C. albicans (B); Organism, effect (morphology, biofilm and growth disruption) ([1]; E. faecalis): E. faecalis (H); Organism, effect (morphology, biofilm and growth disruption) ([1]; S. epidermidis): S. epidermidis (H)"
PF-635 (chain 1 MNAHGHSLIFQKMIVHAFAFFSKQKNYLYF; chain 2 MNAHGHSLIFQKMIVHAFAFFSKQKNYLYF; Peptide with targeting and/or antimicrobial activity),S. pneumoniae (D),G B,S. epidermidis and P. aeruginosa and C. albicans and MRSA and S. pneumoniae and E. faecalis and C. jeikeium,MRSA (D),–,"Organism, effect (morphology, biofilm and growth disruption) ([1]; C. albicans): C. albicans (B); Organism, effect (morphology, biofilm and growth disruption) ([1]; C. jeikeium): C. jeikeium (D); Organism, effect (morphology, biofilm and growth disruption) ([1]; E. faecalis): E. faecalis (D); Organism, effect (morphology, biofilm and growth disruption) ([1]; S. epidermidis): S. epidermidis (M)"
PF-737 (chain 1 KSSGSSASASSTAGGSSSK; chain 2 KSSGSSASASSTAGGSSSK; Peptide with targeting and/or antimicrobial activity),S. pneumoniae (D),G B,S. epidermidis; also recorded: S. pneumoniae,–,–,–
PF-738 (chain 1 KSGATSAASGAKSGASS; chain 2 KSGATSAASGAKSGASS; Peptide with targeting and/or antimicrobial activity),–,G B,S. epidermidis; also recorded: C. albicans; also recorded: C. jeikeium,MRSA (M),–,–
PF-741 (chain 1 AKREDTVAAQIGANILNLIQ; chain 2 AKREDTVAAQIGANILNLIQ; Peptide with targeting and/or antimicrobial activity),S. pneumoniae (D),G B,S. epidermidis and M. luteus and P. mirabilis and P. aeruginosa and C. albicans and MRSA and S. pneumoniae and E. faecalis,MRSA (C),S. mutans (D),"Organism, effect (morphology, biofilm and growth disruption) ([1]; E. coli): E. coli (C); Organism, effect (morphology, biofilm and growth disruption) ([1]; M. luteus): M. luteus (C); Organism, effect (morphology, biofilm and growth disruption) ([1]; P. mirabilis): P. mirabilis (C); Organism, effect (morphology, biofilm and growth disruption) ([1]; S. epidermidis): S. epidermidis (C)"
PF-744 (chain 1 LGVGTFVGKVLIKNQQKQKSKKKAQ; chain 2 LGVGTFVGKVLIKNQQKQKSKKKAQ; Peptide with targeting and/or antimicrobial activity),S. pneumoniae (H),G B,S. epidermidis and M. luteus and E. coli and MRSA and S. pneumoniae and E. faecalis and C. jeikeium,–,–,–
PF-746 (chain 1 FLGNSQYFTRK; chain 2 FLGNSQYFTRK; Peptide with targeting and/or antimicrobial activity),S. pneumoniae (C),G B,S. epidermidis; also recorded: M. luteus; also recorded: E. coli; also recorded: C. albicans; also recorded: S. pneumoniae; also recorded: E. faecalis; also recorded: C. jeikeium,MRSA (C),S. mutans (D),"Organism, effect (morphology, biofilm and growth disruption) ([1]; E. coli): E. coli (C); Organism, effect (morphology, biofilm and growth disruption) ([1]; M. luteus): M. luteus (C); Organism, effect (morphology, biofilm and growth disruption) ([1]; P. aeruginosa): P. aeruginosa (A); Organism, effect (morphology, biofilm and growth disruption) ([1]; S. epidermidis): S. epidermidis (C)"
PF-756 (chain 1 DALLRLA; chain 2 DALLRLA; Peptide with targeting and/or antimicrobial activity),S. pneumoniae (A),G B,S. epidermidis and M. luteus and C. albicans and MRSA and C. jeikeium,–,–,–
PF-757 (chain 1 PQAISSVQQNA; chain 2 PQAISSVQQNA; Peptide with targeting and/or antimicrobial activity),S. pneumoniae (H),G B,M. luteus and C. albicans and MRSA,–,–,–
PF-760 (chain 1 DHITLDDYEIHDGFNFELYYG; chain 2 DHITLDDYEIHDGFNFELYYG; Peptide with targeting and/or antimicrobial activity),S. pneumoniae (C),G B,S. epidermidis; also recorded: M. luteus,MRSA (M),–,"Organism, effect (morphology, biofilm and growth disruption) ([1]; S. epidermidis): S. epidermidis (M)"
PF-762 (chain 1 PAPAPSAPAPAPEQPEQPA; chain 2 PAPAPSAPAPAPEQPEQPA; Peptide with targeting and/or antimicrobial activity),S. pneumoniae (H),G B,M. luteus; also recorded: C. albicans,–,–,–
PF-764 (chain 1 GYFEPGKRD; chain 2 GYFEPGKRD; Peptide with targeting and/or antimicrobial activity),S. pneumoniae (H),G B,S. epidermidis and M. luteus and C. albicans and MRSA and S. pneumoniae and E. faecalis and C. jeikeium,MRSA (D),–,–
PF-C058 (FETGFGDGYYMSLWGLNEKDEVCKVVIPFINPELID; Peptide with targeting and/or antimicrobial activity),–,G B,A. naeslundii; also recorded: F. nucleatum; also recorded: P. gingivalis; also recorded: S. mutans,–,S. mutans (F),–
PF-C061 (TLNYKKMFFSVIFLLGLNYLICNSPLFFKQIEF; Peptide with targeting and/or antimicrobial activity),–,G B,A. naeslundii; also recorded: F. nucleatum; also recorded: P. gingivalis; also recorded: S. mutans; also recorded: T. denticola,–,S. mutans (F),"Organism, effect (morphology, biofilm and growth disruption) ([1]; F. nucleatum): F. nucleatum (T)"
PF-C065 (DEERYSDSYFLKEKVFYLILALFLILFHQKYLYFLEIITI; Peptide with targeting and/or antimicrobial activity),–,G B,A. naeslundii; also recorded: F. nucleatum; also recorded: P. gingivalis; also recorded: S. mutans,–,–,"Organism, effect (morphology, biofilm and growth disruption) ([1]; F. nucleatum): F. nucleatum (T)"
PF-C072 (KKMFSLIRKVNWIFFILFIVLDLTNVFPLIRTILFAILSRQ; Peptide with targeting and/or antimicrobial activity),–,G B,A. naeslundii; also recorded: F. nucleatum; also recorded: P. gingivalis; also recorded: S. mutans; also recorded: T. denticola,–,S. mutans (F),"Organism, effect (morphology, biofilm and growth disruption) ([1]; F. nucleatum): F. nucleatum (T); Organism, effect (morphology, biofilm and growth disruption) ([1]; P. gingivalis): P. gingivalis (T)"
PF-C095 (LLALNMNEDTYYFELFFIFDNQNKKWLIFDLKERG; Peptide with targeting and/or antimicrobial activity),–,G B,A. naeslundii; also recorded: F. nucleatum; also recorded: P. gingivalis; also recorded: S. mutans,–,–,"Organism, effect (morphology, biofilm and growth disruption) ([1]; F. nucleatum): F. nucleatum (T)"
PF-C098 (PETKGKVSAFVFGIVVANVIAVVYILYMLREIGIIQ; Peptide with targeting and/or antimicrobial activity),–,G B,A. naeslundii; also recorded: F. nucleatum; also recorded: P. gingivalis; also recorded: S. mutans; also recorded: T. denticola,–,S. mutans (F),"Organism, effect (morphology, biofilm and growth disruption) ([1]; F. nucleatum): F. nucleatum (T)"
